TGI data for 19 compounds are collected here from PubChem BioAssay (NCI).

Each structure is given as a SMILES string.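 Dose response: 5 concentrations. Exposure: 48 h. Format: 96-well plates. Endpoint: linear interpolation; highest concentration if not reached. TGI denotes the concentration required for complete inhibition of growth.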 A value given as a limit tells only on which side of the number the result lay.

Some test systems named below: SF-539 CNS; NCI/ADR-RES ovarian; T-47D breast; PC-3 prostate; 786-0 renal; OVCAR-8 ovarian; TK-10 renal; HT29 colon; RXF 393 renal; SR leukemia.
Holding throughout (experiment): inhibition of tumour cell growth, NCI panel, 48 h

Take `Cc1ccc(S(=O)(=O)N/N=C2\C3CC4CC(C3)C2C4)cc1` (stereo not given): the TGI in the test with SF-539 CNS, in the test on NCI/ADR-RES ovarian, in the test on T-47D breast, in the test with PC-3 prostate, with 786-0 renal and in the test on OVCAR-8 ovarian was over 100 µM each time. Also, the TGI in the test with TK-10 renal, in the test with HT29 colon, in the test on RXF 393 renal and with SR leukemia was over 100 µM throughout.

In the case of `C/C(=N\Nc1ccccc1)C(CN(C)C)C(c1ccccc1)c1c(O)c2ccccc2oc1=O` (stereo not given), the TGI with SF-539 CNS, with NCI/ADR-RES ovarian, in the test on T-47D breast, in the test on PC-3 prostate, in the test with 786-0 renal and in the test with OVCAR-8 ovarian was over 100 µM in each case. For the same compound, the TGI in the test on TK-10 renal, in the test on HT29 colon, with RXF 393 renal and in the test on SR leukemia was over 100 µM in each case.

As to `Cc1ccc(/C=C2\CN(C)CC3C2=NC(=S)NC3c2ccc(C)cc2)cc1` (stereo not given), the TGI was over 100 µM in the test with SF-539 CNS; over 100 µM in the test with NCI/ADR-RES ovarian; 96.9 µM in the test with T-47D breast; over 100 µM in the test with PC-3 prostate; over 100 µM in the test with 786-0 renal; over 100 µM in the test with OVCAR-8 ovarian. For the same compound, the TGI in the test with TK-10 renal is over 100 µM; in the test with HT29 colon, over 100 µM; in the test with RXF 393 renal, over 87.1 µM; with SR leukemia it was over 100 µM.

Take `CCN(CC)CCN(C)CCc1ccc(Br)cc1`: the TGI with SF-539 CNS, in the test with NCI/ADR-RES ovarian, with T-47D breast, with PC-3 prostate, with 786-0 renal and with OVCAR-8 ovarian was over 100 µM in each case. Also, the TGI with TK-10 renal, in the test with HT29 colon, in the test on RXF 393 renal and in the test on SR leukemia was over 100 µM throughout.

In the case of `CC1=C2NCN(C)N=C2C(C#N)(C#N)C1(C#N)C#N`, the TGI in the test on SF-539 CNS was 64.4 µM; in the test with NCI/ADR-RES ovarian it was over 68.5 µM; in the test on T-47D breast, 59 µM; with PC-3 prostate, 72.8 µM; in the test with 786-0 renal, 37.7 µM; with OVCAR-8 ovarian, over 58.2 µM. The TGI is 31 µM in the test with TK-10 renal, 51.3 µM with HT29 colon, 42.7 µM in the test on RXF 393 renal and 35.8 µM in the test on SR leukemia.

For the compound `COC(=O)C(NC(=O)CSc1nnc(COc2ccc(Cl)cc2)n1-c1ccccc1)C(C)C` (stereo not given), the TGI is over 100 µM in the test with SF-539 CNS; 82.1 µM in the test with NCI/ADR-RES ovarian; 70.6 µM with T-47D breast; 50.9 µM in the test with PC-3 prostate; 38.8 µM in the test on 786-0 renal; 64.7 µM in the test with OVCAR-8 ovarian. Further, the TGI is 36.2 µM with TK-10 renal, 44.5 µM with HT29 colon, 57.5 µM in the test with RXF 393 renal and over 100 µM with SR leukemia.

`O=P(O)(O)CN1CCNCCN(CP(=O)(O)O)CCNCC1`: the TGI was over 100 µM with SF-539 CNS; over 100 µM with NCI/ADR-RES ovarian; over 100 µM in the test on T-47D breast; over 100 µM with PC-3 prostate; over 100 µM with 786-0 renal; over 83.6 µM with OVCAR-8 ovarian. Moreover, the TGI is over 100 µM in the test with TK-10 renal, over 100 µM with HT29 colon, over 100 µM in the test with RXF 393 renal and 4.16 µM with SR leukemia.

On to `CC(C)=CCC[C@@H](C)c1c2[nH]c3ccccc3sc-2c(C)c(=O)c1=O`, for which the TGI is 16.3 µM in the test on SF-539 CNS; 12.1 µM in the test on NCI/ADR-RES ovarian; 23.1 µM in the test on T-47D breast; over 75 µM in the test on PC-3 prostate; 24.1 µM with 786-0 renal; 13.8 µM in the test on OVCAR-8 ovarian. Further, the TGI was over 75 µM in the test on TK-10 renal, over 27.4 µM with HT29 colon, 32.7 µM in the test on RXF 393 renal and over 61.6 µM in the test with SR leukemia.

Regarding `COC(=O)c1ccc(/C=C2\CCc3ccccc3C2=O)cc1`, the TGI in the test on SF-539 CNS, with NCI/ADR-RES ovarian, in the test on T-47D breast, in the test with PC-3 prostate, with 786-0 renal and in the test with OVCAR-8 ovarian was over 100 µM throughout. Also, the TGI with TK-10 renal, in the test with HT29 colon, in the test on RXF 393 renal and in the test with SR leukemia was over 100 µM throughout.

As for `CCOC(=O)c1nc2ccccc2nc1NCc1ccc(Cl)cc1Cl`, the TGI in the test with SF-539 CNS, in the test on NCI/ADR-RES ovarian, in the test on T-47D breast, in the test with PC-3 prostate, in the test with 786-0 renal and in the test with OVCAR-8 ovarian was over 100 µM throughout. In addition, the TGI in the test on TK-10 renal, with HT29 colon, in the test with RXF 393 renal and in the test on SR leukemia was over 100 µM in each case.

On to `CCCNC(=O)CCC(C)[C@H]1CCC2C3C(C[C@H](OC(C)=O)[C@@]21C)[C@@]1(C)CCC2(C[C@H]1C[C@H]3OC(C)=O)OOC1(CCCCC1)OO2` (stereo not given in full), for which the TGI is 16 µM in the test on SF-539 CNS; 8.45 µM in the test on NCI/ADR-RES ovarian; 6.44 µM with T-47D breast; 7.08 µM in the test on PC-3 prostate; 6.53 µM with 786-0 renal; 4.3 µM in the test on OVCAR-8 ovarian. Besides, the TGI with TK-10 renal was 4.32 µM; in the test on HT29 colon, over 90.8 µM; in the test on RXF 393 renal, 27.7 µM; with SR leukemia, 4.7 µM.

Regarding `CC1(C)[C@@H]2CC[C@@]1(C)[C@H](O)[C@@H]2SCc1ccccc1`, the TGI was 34.6 µM in the test with SF-539 CNS; 33 µM in the test on NCI/ADR-RES ovarian; 62.8 µM in the test with T-47D breast; 50.4 µM in the test with PC-3 prostate; 32.9 µM with 786-0 renal; 37.2 µM with OVCAR-8 ovarian. Besides, the TGI in the test with TK-10 renal was 57.8 µM; in the test on HT29 colon, 29.6 µM; in the test on RXF 393 renal, 33 µM; in the test on SR leukemia it was over 100 µM.

Take `CCOC(=O)/C(C#N)=C/N(CC)/N=C/c1ccccc1`: the TGI in the test with SF-539 CNS, with NCI/ADR-RES ovarian, in the test on T-47D breast, with PC-3 prostate, with 786-0 renal and with OVCAR-8 ovarian was over 100 µM throughout. The TGI in the test on TK-10 renal, in the test with HT29 colon, with RXF 393 renal and in the test on SR leukemia was over 100 µM in each case.

With `O=C1CC2(CCNCC2)C(=O)N1N1CCOCC1`, the TGI with SF-539 CNS, in the test with NCI/ADR-RES ovarian, in the test on T-47D breast, in the test with PC-3 prostate, in the test with 786-0 renal and in the test with OVCAR-8 ovarian was over 100 µM each time. The TGI in the test with TK-10 renal, with HT29 colon, in the test on RXF 393 renal and in the test with SR leukemia was over 100 µM in each case.

With `O=C1C=C(N2CCN(c3ccccn3)CC2)C(=O)c2c(O)ccc(O)c21`, the TGI with SF-539 CNS was 22.3 µM; with NCI/ADR-RES ovarian, 11.5 µM; in the test with T-47D breast, over 100 µM; in the test on PC-3 prostate, over 56.2 µM; in the test with 786-0 renal, 42.9 µM; in the test with OVCAR-8 ovarian it was over 90.8 µM. Also, the TGI is 45.7 µM in the test with TK-10 renal, 31.2 µM in the test with HT29 colon, 43.4 µM in the test on RXF 393 renal and over 50.7 µM in the test on SR leukemia.

Turning to `O=C(c1ccco1)C1CC(c2ccc3ccccc3c2O)=NN1c1ccc([N+](=O)[O-])cc1[N+](=O)[O-]` (stereo not given), the TGI in the test on SF-539 CNS is over 100 µM; with NCI/ADR-RES ovarian, 75.4 µM; in the test with T-47D breast, over 100 µM; in the test with PC-3 prostate, over 100 µM; with 786-0 renal it was over 100 µM; in the test with OVCAR-8 ovarian, over 100 µM. Besides, the TGI in the test on TK-10 renal is over 100 µM; in the test on HT29 colon it was 42.3 µM; in the test on RXF 393 renal, over 100 µM; in the test on SR leukemia, 23.1 µM.

Take `CC1(C)CCC2(C(=O)OC3OC(CO)C(O)C(O)C3O)CCC3(CO)C(=CCC4C5(C)CC(O)C(O)C(C)(C(=O)OC6OC(CO)C(O)C(O)C6O)C5CCC43C)C2C1` (stereo not given): the TGI in the test with SF-539 CNS, in the test with NCI/ADR-RES ovarian, in the test on T-47D breast, in the test with PC-3 prostate, in the test with 786-0 renal and with OVCAR-8 ovarian was over 100 µM in each case. Further, the TGI in the test on TK-10 renal, in the test with HT29 colon, in the test with RXF 393 renal and in the test with SR leukemia was over 100 µM each time.

Regarding `O=C(CSc1nc2ccc(I)cc2c(=O)n1Cc1ccccc1)NN1C(=O)CCC1=O`, the TGI in the test with SF-539 CNS, in the test on NCI/ADR-RES ovarian, in the test with T-47D breast, in the test on PC-3 prostate, in the test with 786-0 renal and with OVCAR-8 ovarian was over 100 µM throughout. The TGI with TK-10 renal is over 100 µM; in the test on HT29 colon it was over 100 µM; in the test on RXF 393 renal it was 62.5 µM; in the test on SR leukemia, over 100 µM.

Consider `O=S1(=O)CCN(c2ccccc2CC(c2c[nH]c3ccccc23)c2c[nH]c3ccccc23)CC1`, for which the TGI was 32 µM in the test with SF-539 CNS; 38.7 µM with NCI/ADR-RES ovarian; over 100 µM with T-47D breast; 13.2 µM in the test with PC-3 prostate; 27.8 µM with 786-0 renal; 39.7 µM with OVCAR-8 ovarian. For the same compound, the TGI in the test with TK-10 renal worked out at 19.8 µM; with HT29 colon it was 23.3 µM; with RXF 393 renal, 28.8 µM; in the test with SR leukemia, 20.1 µM.
